Experiment in all cases: KINOMEscan
What all share (assay type): binding
Settings in all cases: read-out: % control activity remaining

In assay [1] the target is T1, CAMKK2 (Homo sapiens, UniProt Q96RR4).
T1 construct: purchased Eurofins DiscoverX KINOMEscan

The target of assay [2] is T2, MAP4K3 (Homo sapiens, UniProt Q8IVH8).
T2 construct: purchased Eurofins DiscoverX KINOMEscan
T2 sequence (Q8IVH8 1-894): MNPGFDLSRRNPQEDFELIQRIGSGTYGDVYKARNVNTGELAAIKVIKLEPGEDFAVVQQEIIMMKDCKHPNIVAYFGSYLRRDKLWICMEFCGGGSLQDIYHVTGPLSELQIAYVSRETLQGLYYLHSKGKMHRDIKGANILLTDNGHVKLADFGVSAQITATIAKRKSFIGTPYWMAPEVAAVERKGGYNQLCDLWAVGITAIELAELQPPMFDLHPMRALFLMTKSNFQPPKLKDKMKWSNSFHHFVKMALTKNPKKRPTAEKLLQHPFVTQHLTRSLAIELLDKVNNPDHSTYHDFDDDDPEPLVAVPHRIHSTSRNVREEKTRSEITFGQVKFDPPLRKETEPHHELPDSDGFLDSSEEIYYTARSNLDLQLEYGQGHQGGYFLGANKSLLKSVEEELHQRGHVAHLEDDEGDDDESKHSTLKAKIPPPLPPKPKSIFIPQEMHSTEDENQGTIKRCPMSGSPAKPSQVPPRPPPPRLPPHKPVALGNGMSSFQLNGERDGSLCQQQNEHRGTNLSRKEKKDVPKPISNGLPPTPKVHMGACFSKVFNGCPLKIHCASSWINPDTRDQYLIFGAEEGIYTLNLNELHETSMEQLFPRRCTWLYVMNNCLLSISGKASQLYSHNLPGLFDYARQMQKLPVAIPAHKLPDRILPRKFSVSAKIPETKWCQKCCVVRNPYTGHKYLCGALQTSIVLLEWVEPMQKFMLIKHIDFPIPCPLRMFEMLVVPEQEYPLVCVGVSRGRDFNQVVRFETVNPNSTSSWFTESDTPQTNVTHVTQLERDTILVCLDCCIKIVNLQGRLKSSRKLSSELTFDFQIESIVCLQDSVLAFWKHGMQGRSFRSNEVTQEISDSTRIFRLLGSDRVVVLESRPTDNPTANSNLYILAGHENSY

The target in assay [3] is T3, NEK6 (Homo sapiens, UniProt Q9HC98).
T3 construct: purchased Eurofins DiscoverX KINOMEscan
T3 sequence (Q9HC98 whole entry): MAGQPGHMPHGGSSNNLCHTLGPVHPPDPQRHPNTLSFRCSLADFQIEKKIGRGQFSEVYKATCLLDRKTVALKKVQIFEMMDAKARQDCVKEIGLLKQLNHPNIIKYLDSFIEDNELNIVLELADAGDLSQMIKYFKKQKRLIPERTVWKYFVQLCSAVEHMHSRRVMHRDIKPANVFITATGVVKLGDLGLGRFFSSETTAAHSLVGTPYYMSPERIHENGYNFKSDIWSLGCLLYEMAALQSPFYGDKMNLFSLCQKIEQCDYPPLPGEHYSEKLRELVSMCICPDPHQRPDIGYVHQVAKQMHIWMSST

Assay [4] addresses T4, STK36 (Homo sapiens, UniProt Q9NRP7).
T4 construct: purchased Eurofins DiscoverX KINOMEscan
T4 sequence (Q9NRP7 1-1315): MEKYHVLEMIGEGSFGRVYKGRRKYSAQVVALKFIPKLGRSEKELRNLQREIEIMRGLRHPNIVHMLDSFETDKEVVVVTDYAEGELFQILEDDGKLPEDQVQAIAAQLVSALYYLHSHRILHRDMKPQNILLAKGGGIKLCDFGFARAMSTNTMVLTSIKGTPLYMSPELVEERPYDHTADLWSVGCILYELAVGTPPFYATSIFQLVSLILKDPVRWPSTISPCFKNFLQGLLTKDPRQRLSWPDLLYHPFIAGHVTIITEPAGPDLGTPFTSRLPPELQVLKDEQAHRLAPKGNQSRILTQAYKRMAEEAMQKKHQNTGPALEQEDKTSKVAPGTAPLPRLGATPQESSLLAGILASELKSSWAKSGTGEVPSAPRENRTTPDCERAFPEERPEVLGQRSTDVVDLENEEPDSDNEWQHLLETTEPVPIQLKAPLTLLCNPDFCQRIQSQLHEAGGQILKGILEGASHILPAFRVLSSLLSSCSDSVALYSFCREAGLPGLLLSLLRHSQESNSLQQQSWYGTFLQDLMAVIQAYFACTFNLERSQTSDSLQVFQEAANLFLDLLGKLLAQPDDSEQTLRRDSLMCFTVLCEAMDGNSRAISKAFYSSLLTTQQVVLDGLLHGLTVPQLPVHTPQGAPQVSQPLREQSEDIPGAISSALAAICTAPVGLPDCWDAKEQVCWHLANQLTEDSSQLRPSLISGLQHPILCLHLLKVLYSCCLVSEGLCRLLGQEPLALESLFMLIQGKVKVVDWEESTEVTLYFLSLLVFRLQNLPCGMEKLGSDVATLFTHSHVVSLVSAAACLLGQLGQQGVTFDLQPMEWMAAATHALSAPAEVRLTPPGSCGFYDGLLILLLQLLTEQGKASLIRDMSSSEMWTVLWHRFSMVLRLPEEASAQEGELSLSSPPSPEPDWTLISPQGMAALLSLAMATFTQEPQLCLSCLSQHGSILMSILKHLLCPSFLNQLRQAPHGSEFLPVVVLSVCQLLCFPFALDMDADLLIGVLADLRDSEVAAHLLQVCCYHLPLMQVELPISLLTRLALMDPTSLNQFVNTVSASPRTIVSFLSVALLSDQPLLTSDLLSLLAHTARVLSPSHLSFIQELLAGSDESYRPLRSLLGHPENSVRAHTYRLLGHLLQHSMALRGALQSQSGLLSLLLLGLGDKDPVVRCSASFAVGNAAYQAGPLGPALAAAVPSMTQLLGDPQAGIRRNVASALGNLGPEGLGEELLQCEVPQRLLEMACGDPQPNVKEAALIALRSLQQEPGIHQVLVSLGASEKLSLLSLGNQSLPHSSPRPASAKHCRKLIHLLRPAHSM

T1 sequence (Q96RR4 whole entry): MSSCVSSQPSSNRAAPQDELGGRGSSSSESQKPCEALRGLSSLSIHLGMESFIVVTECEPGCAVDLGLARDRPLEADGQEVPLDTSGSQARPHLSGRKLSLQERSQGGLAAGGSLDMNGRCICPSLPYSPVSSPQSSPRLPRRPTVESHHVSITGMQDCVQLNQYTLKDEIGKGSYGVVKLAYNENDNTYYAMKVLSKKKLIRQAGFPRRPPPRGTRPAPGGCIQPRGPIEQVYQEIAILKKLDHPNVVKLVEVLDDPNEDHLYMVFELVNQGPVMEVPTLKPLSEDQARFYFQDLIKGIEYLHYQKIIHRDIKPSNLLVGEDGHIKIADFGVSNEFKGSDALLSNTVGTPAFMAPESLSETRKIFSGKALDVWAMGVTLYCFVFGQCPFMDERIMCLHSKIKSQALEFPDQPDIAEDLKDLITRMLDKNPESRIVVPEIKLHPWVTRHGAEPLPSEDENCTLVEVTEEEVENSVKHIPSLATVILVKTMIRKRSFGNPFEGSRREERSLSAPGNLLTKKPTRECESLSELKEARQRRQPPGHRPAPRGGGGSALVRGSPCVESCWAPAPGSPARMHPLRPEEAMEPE

Turning to `Clc1cc(NCC2CC2)c2ncc(-c3ccc4[nH]ncc4c3)n2n1` [compound 2, 6-Chloro-N-(cyclopropylmethyl)-3-(1H-indazol-5-yl)imidazo[1,2-b]pyridazin-8-amine], the remaining binding at 1 µM in assay [1] worked out at 99%; in assay [2], 71%; in assay [3] it was 99%; in assay [4] it was 91%.

As for `O=C(CN1CCOCC1)N[C@H]1CC[C@H](Nc2cc(Cl)nn3c(-c4ccc5[nH]ncc5c4)cnc23)CC1` [compound 26], the remaining binding at 1 µM came out at 42% in assay [1], 92% in assay [2], 100% in assay [3] and 95% in assay [4].

As for `CN1CCC(CNc2cc(Cl)nn3c(-c4cc5nc(Nc6ccccc6)[nH]c5cc4F)cnc23)CC1` [compound 31, 6-Chloro-3-(6-fluoro-2-(phenylamino)-1H-benzo[d]imidazol-5-yl)-N-((1-methylpiperidin-4-yl)methyl)imidazo[1,2-b]pyridazin-8-amine], the remaining binding at 1 µM in assay [1] was 100%; in assay [2] it was 99%; in assay [3], 96%; in assay [4] it was 93%.

These data come from paper PMC6437697 (Journal of Medicinal Chemistry, 2019).
